Laboratory results from patent US12002595B2, “Separation of metal ions by liquid-liquid extraction” (priority 2016, dated 2024).
Like-named read-outs stand apart in the source and are kept apart here.

Key:
[1] = Persistence of the metal complex versus acidity; format: binding; conditions: Zr^4+
[2] = Stability constant (log β) of ligand-metal complexes; format: binding; conditions: Log β110 (Th^4+) versus Log β110 (Eu^3+)
Method: Solution Thermodynamics. All titrant solutions were degassed by boiling for 1 h while being purged under Ar. Carbonate-free 0.1 M KOH was prepared from concentrate (J. T Baker Dilut-It) and was standardized by titrating against 0.1 M potassium hydrogen phthalate (99.95%, Sigma Aldrich). Solutions of 0.1 M HCl were similarly prepared and were standardized by titrating against TRIS (99.9%, J. T. Baker). The glass electrode (Metrohm—Micro Combi—response to [H+]) used for the pH measurements was calibrated at 25.0° C. and at an ionic strength of 0.1 M (KCl) before each potentiometric or spectrophotometric titration. The calibration data were analyzed using the program GLEE (Gans & O'Sullivan, Talanta, 2000, 51 (1): 33-37) to refine for the E° and slope. All thermodynamic measurements were conducted at 25.0° C., in 0.1 M KCl supporting electrolyte under positive Ar gas pressure. The automated titration system was controlled by an 867 pH Module (Metrohm). Two-milliliter Dosino 800 burets (Metrohm) dosed the titrant (0.1 M KOH or 0.1 M HCl) into the thermostated titration vessel (5-90 mL). UV-visible spectra were acquired with an Ocean Optics USB4000-UV-vis spectrometer equipped with a TP-300 dip probe (Ocean Optics; path length of 10 mm), fiber optics and a DH-2000 light source (deuterium and halogen lamps). The fully automated titration system and the UV-vis spectrophotometer were coordinated by LBNL titration system, a computer program developed in house.
Incremental Spectrophotometric Titrations. This method was used to determine the protonation constants of 3,4,3-LI(CAM) as well as the stability constants of its complexes formed with Eu(III), Zr(IV) and ^232Th(IV). The experimental titration setup is similar to previously described systems (Sturzbecher-Hoehne, et al., Radiochimica Acta., 2013, 101 (6): 359-366). For the 3,4,3-LI(CAM) protonation (and Eu(III)-3,4,3-LI(CAM) complexes), titrations were performed with an initial concentration of 50 μM of 3,4,3-LI(CAM) (and 50 μM of Eu(III)) resulting in absorbance values included between 0 and 1.0 throughout the titration. Typically, 9 mL of a sample containing 3,4,3-LI(CAM) (and Eu(III)) and the supporting electrolyte (KCl/HCl) were incrementally perturbed by addition of 0.025 mL of carbonate-free 0.1 M KOH followed by a time delay of 80 s. Buffering of the solution was ensured by the addition of 10 mM of HEPES, 10 mM of CHES and 10 mM of MES. Between 130 and 250 data points were collected per titration, each data point including a pH measurement and a UV-Vis spectrum (250-450 nm) over the pH range 1.5 to 12.0. All spectra were corrected for dilution before data fitting. The entire procedure (electrode calibrate, titration and data treatment) was performed independently five times for the protonation constants and four times for the Eu(III)-3,4,3-LI(CAM) complexes. For the Zr(IV) and Th(IV) complexes, titrations were performed similarly but in the presence of DTPA to avoid the formation of metal hydroxides at low pH, before the uptake by 3,4,3-LI(CAM). For each metal, three titrations were performed independently in the presence of 1.1 to 40 equivalents of DTPA.
Data Treatment. […] All metal and chelator concentrations were held at estimated values determined from the volume of standardized stock solutions. All species formed with 3,4,3-LI(CAM) were considered to have significant absorbance to be observed in the UV-vis spectra and were therefore included in the refinement process. […]

[3] = La^3+; 25° C.; cited from earlier work
[4] = Eu(III), cited from earlier work
[5] = Extraction by HDEHP as a function of pH with hold-back reagent
Method: All liquid-liquid extractions were conducted using a 1:1 organic to aqueous phase ratio for a total volume of 1 mL. Samples were pH adjusted by HNO3 and prepared for a final concentration of 1.0 M sodium lactate, 40 mM of hold-back reagent (160 mM in the case of the HOPO monomer), and 2.0 M Na^+. The concentration of the trivalent f-element was dependent on the availability and radioactivity of the isotopes. The organic phase consisted of 0.5 M HDEHP in kerosene. All samples were incubated in a thermostatic shaker held at 28° C. and rocked at 280 rpm for 90 minutes. To ensure complete phase separation, samples were left overnight at room temperature to equilibrate. Radioactive samples were analyzed by liquid scintillation counting (LSC). The analytical protocol consisted of diluting 10 uL of radioactive sample into 10 mL of Ultima Gold™. Ultima Gold™ is a commercially available analytical reagent commonly used for LSC. The resulting analytical samples were shaken for 10 min prior to counting on a Perkin-Elmer Packard Tri-Carb instrument (model B4430).
Data was analyzed by the distribution ratio (Dm), separation factor (SFm1/m2) and extraction percentage (% Extraction) as defined by Equations (6), (7) and (8), respectively. Equation (8) uses concentrations of the metal in each phase since the aqueous: organic ratio was 1. Both the organic and aqueous phases were analyzed after liquid-liquid extraction and phase separation. These calculation methods rely on the assumptions that no metal (M) is lost to sorption or precipitation and that no volume variation occurred during the mass transfer between the aqueous and organic phases.
In FIG. 23, aqueous phase: [ligand]=40 mM, buffer sodium lactate/sodium nitrate. Organic phase: [HDEHP]=0.5 M, kerosene diluent. T=25° C. O/A=1, one contact. Initial metal concentrations: [Ac-225]=0.4 nM, [Am-243]=40.4 nM, or [Gd]=500 μM (spiked with Gd-153 for LSC measurements).

Row | SMILES | acidity range over which the ligand stays bound [1] | Δ log β [2] | log βML [3] | log β111 ([4]; I=0.1 M at 25° C.) | extraction of Am^3+ ([5]; pH higher than 1, 40 mM ligand, 0.5 M HDEHP) | log β111 ([4]; I=2.0 M at 25° C.) | maximum metal extraction of Am(III) ([5]; around pH 1.5) | extraction of Am(III) ([5]; at pH 4) | Extraction of Gd(III) ([5]; until after pH 4)
1 | O=C(NCCCN(CCCCN(CCCNC(=O)c1cccc(=O)n1O)C(=O)c1cccc(=O)n1O)C(=O)c1cccc(=O)n1O)c1cccc(=O)n1O [3,4,3-LI(1,2-HOPO)] | from pH 8 to strongly acidic solutions (at least 6 M HCl) | 19.9 | 16.4 ± 0.4 | 24.8 | No extraction | – | – | – | –
2 | O=C(O)CN(CCN(CC(=O)O)CC(=O)O)CCN(CC(=O)O)CC(=O)O [DTPA, Diethylenetriaminepentaacetic acid, reference compound] | – | 6.3 | – | – | – | 22.56 | 78% | less than 10% | above 90%
